Measurements reported in US20110212142A1, “CURCUMINOIDS AND ITS METABOLITES FOR THE APPLICATION IN OCULAR DISEASES” (LAILA PHARMACEUTICALS PVT.LTD., priority 2008, published 2011).
Read-outs that look alike come from different tables or passages of the source.

Test: Particle size distribution study (Malvern particle size analyzer, laser diffraction)
Type: physicochemical
Protocol: The study was conducted using Malvern particle size analyzer. The map of scattering intensity versus angle is the primary source of information used to calculate the particle size. The scattering of particles is accurately predicted by the Mie scattering model allowing accurate sizing across the widest possible dynamic range. During the laser diffraction measurement, particles are passed through a focused laser beam. These particles scatter light at an angle that is inversely proportional to their size. The angular intensity of the scattered light is then measured by a series of photosensitive detectors. The advantage of this study is that there is no sample preparation involved.
This is a clear indication that the process of nanoemulsification followed has effectively transformed the large sized particles to nanosized coated curcuminoid particles. Additional peaks can be observed which is contributed by the high molecular weight excipients used to prepare the formulation.

COc1cc(/C=C/C(=O)CC(=O)/C=C/c2ccc(O)c(OC)c2)ccc1O [unformulated curcumin 98%, curcumin]
particle size: 373 nm
particle size (listed as unformulated curcumin): 374 nm
